The text below walks through data of patent publication US9409884B2 (Rigel Pharmaceuticals, Inc., priority 2012, dated 2016).

The target of this test is AMPK. The experiment in a line: AMPK activation, enzyme-linked immunosorbent assay. In kind it is biochemical. In outline: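 Read-out: ELISA, used to detect compound-driven activation of AMPK.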

pEC50: −log10 of the molar value.

As for `O=C(NC1CCN(Cc2ccccc2)CC1)c1ccc(OC2CCN(Cc3ccc(Cl)c(Cl)c3)CC2)c(Cl)c1` [Compound 5-84, N-(1-benzylpiperidin-4-yl)-3-chloro-4-(1-(3,4-dichlorobenzyl)piperidin-4-yloxy)benzamide], the negative logarithm of the EC50 (pEC50) (as a rule, the negative decadic logarithm of the EC50, by convention in mol/L) (Table 12, compounds of Table 5) is over 6.00.
Compound `CS(=O)(=O)c1ccc(OC2CCN(C(=O)c3ccc(C(=O)Nc4ccc(Oc5ccc(C#N)cc5)nc4)cn3)CC2)cc1` [Compound 7-121, N-(6-(4-cyanophenoxy)pyridin-3-yl)-6-(4-(4-(methylsulfonyl)phenoxy)piperidine-1-carbonyl) nicotinamide] gave a pEC50 (Table 14, compounds of Table 7) of over 6.00.
Consider `CS(=O)(=O)c1ccc(O[C@H]2CCN(C(=O)c3ccc4oc(C(=O)NC5CCN(Cc6ccc(C#N)cc6)CC5)cc4c3)C[C@@H]2F)cc1` [Compound 6-113, N-(1-(4-cyanobenzyl)piperidin-4-yl)-5-((3,4-trans)-3-fluoro-4-(4-(methylsulfonyl)phenoxy)piperidine-1-carbonyl) benzofuran-2-carboxamide], for which the pEC50 (Table 13, compounds of Table 6) was over 7.00.
Where the note is “Table 12, compounds of Table 5”, `O=C(NC1CCN(Cc2ccccc2)CC1)c1ccc(OC2CCN(Cc3ccc(OC(F)(F)F)cc3)CC2)cc1` [Compound 5-63, N-(1-benzylpiperidin-4-yl)-4-(1-(4-(trifluoromethoxy)benzyl)piperidin-4-yloxy)benzamide] had a pEC50 of over 6.00.
Consider `COc1ccc(CN2CCC(Oc3ccc(C(=O)N4CCN(C(=O)OC(C)(C)C)CC4)cc3)CC2)cc1` [Compound 5-96, tert-butyl 4-(4-(1-(4-methoxybenzyl)piperidin-4-yloxy)benzoyl)piperazine-1-carboxylate], for which, under “Table 12, compounds of Table 5”, the negative logarithm of the EC50 (pEC50) was 5.00 to 6.00.
As to `O=C(NC1CCN(Cc2ccccc2)CC1)c1ccc(OC2CCN(Cc3ccc(Cl)c(Cl)c3)CC2)c(F)c1` [Compound 5-82, N-(1-benzylpiperidin-4-yl)-4-(1-(3,4-dichlorobenzyl)piperidin-4-yloxy)-3-fluorobenzamide], under “Table 12, compounds of Table 5”, the pEC50 was over 6.00.
As for `CCNS(=O)(=O)c1ccc(CN2CCN(C(=O)c3ccc(C(=O)NC4CCN(Cc5ccc(C#N)cc5)CC4)cn3)CC2)cc1` [Compound 4-17, N-(1-(4-cyanobenzyl)piperidin-4-yl)-6-(4-(4-(N-ethylsulfamoyl)benzyl)piperazine-1-carbonyl)nicotinamide], the pEC50 (Table 11, compounds of Table 4) was 5.30 to 6.00.
In the case of `N#Cc1ccc(Oc2ccc(NC(=O)c3cc4cc(C(=O)N5CCC(C(=O)c6ccc(F)cc6)CC5)ccc4o3)cn2)cc1` [Compound 6-17, N-(6-(4-cyanophenoxy)pyridin-3-yl)-5-(4-(4-fluorobenzoyl)piperidine-1-carbonyl)benzofuran-2-carboxamide], where the note is “Table 13, compounds of Table 6”, the pEC50 is over 7.00.
Compound `COc1ccc(C(=O)C2CCCN(C(=O)c3ccc(C(=O)NC4CCN(Cc5ccc(C#N)cc5)CC4)cn3)C2)cc1` (stereo not drawn) [Compound 7-7, N-(1-(4-cyanobenzyl)piperidin-4-yl)-6-(3-(4-methoxybenzoyl)piperidine-1-carbonyl)nicotinamide] showed a pEC50 (Table 14, compounds of Table 7) of 5.00 to 6.00.
As to `N#Cc1ccc(CN2CCC(NC(=O)c3ccc(C(=O)N4CCC(C(=O)c5ccc(N6CCCC6)cc5)CC4)nc3)[C@H](F)C2)cc1` (stereo partly drawn) [Compound 7-72, N-((3,4-trans)-1-(4-cyanobenzyl)-3-fluoropiperidin-4-yl)-6-(4-(4-(pyrrolidin-1-yl)benzoyl)piperidine-1-carbonyl)nicotinamide], the pEC50 (Table 14, compounds of Table 7) is over 6.00.
In turn, `O=C(NC1CCN(Cc2ccccc2)CC1)c1ccc(OC2CCN(Cc3ccc(F)cc3)CC2)c(F)c1` [Compound 5-61, N-(1-benzylpiperidin-4-yl)-3-fluoro-4-(1-(4-fluorobenzyl)piperidin-4-yloxy)benzamide] showed a pEC50 (Table 12, compounds of Table 5) of over 6.00.
In turn, `O=C(N[C@H]1CCN(Cc2ccc(F)cc2)C1)c1ccc(OC2CCN(c3ccc(C(F)(F)F)cc3)CC2)cn1` [Compound 1-32, (S)-N-(1-(4-fluorobenzyl)pyrrolidin-3-yl)-5-(1-(4-(trifluoromethyl)phenyl)piperidin-4-yloxy) picolinamide] showed a pEC50 (Table 8, compounds of Table 1) of 6.30 to 7.00.
